For one assay, the target named is BACE (Homo sapiens, UniProt P56817). The assay is described as follows: In vitro enzymatic BACE FRET (fluorescence resonance energy transfer) assay. Format: biochemical. Particulars: BACE enzyme 0.2 nM, FRET substrate 50 nM, acetate buffer pH 4.2. Here is the method:
In Vitro Enzymatic BACE FRET (Fluorescence Resonance Energy Transfer) Assay
Assay buffer is 0.05 M acetate, pH 4.2, 10% DMSO final, 100 uM genapol (which is a nonionic detergent, below it's Critical Micelle Concentration). Enzyme (0.2 nM) is pre-incubated for one hour with inhibitors added in 1 uL of DMSO. Then the assay is started by the addition of FRET substrate (50 nM) and incubated for one hour. The FRET assay is terminated with by addition of Tris buffer, which raises the pH to neutrality, and the fluorescence is determined. The FRET substrate is a peptide with commercially available fluorophore and quencher, on opposite sides of the BACE cleavage site. Proteolytic cleavage of the FRET substrate releases quenching of fluorescence (excitation 488 nm and emission […]).

For assay [1], the system named is Aβ40 in conditioned medium of cells stably expressing Amyloid Precursor Protein (APP). The assay is described as follows: BACE cell-based assay: Aβ40 in conditioned medium by sandwich ELISA. The procedure, abridged:
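Aβ40 in conditioned medium was read by time-resolved fluorescence sandwich ELISA (capture pAb40, detection biotinylated 6E10, 4° C incubations). Compounds were applied for 24 h to cells stably expressing APP, at 10 doses from 100 or 10 μM top, 0.1% DMSO. IC50 derived from percent of control.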

Where [2] appears, read: cells stably expressing APP, 24 h incubation with compound, Aβ40 in supernatant by sandwich ELISA, read-out: IC50 values in the cell-based assay (inhibition or reduction of Aβ40).

Structures are written as SMILES. Where two headings read alike, the source gives them in different places.

Sequence of BACE (P56817 46-501, species assumed): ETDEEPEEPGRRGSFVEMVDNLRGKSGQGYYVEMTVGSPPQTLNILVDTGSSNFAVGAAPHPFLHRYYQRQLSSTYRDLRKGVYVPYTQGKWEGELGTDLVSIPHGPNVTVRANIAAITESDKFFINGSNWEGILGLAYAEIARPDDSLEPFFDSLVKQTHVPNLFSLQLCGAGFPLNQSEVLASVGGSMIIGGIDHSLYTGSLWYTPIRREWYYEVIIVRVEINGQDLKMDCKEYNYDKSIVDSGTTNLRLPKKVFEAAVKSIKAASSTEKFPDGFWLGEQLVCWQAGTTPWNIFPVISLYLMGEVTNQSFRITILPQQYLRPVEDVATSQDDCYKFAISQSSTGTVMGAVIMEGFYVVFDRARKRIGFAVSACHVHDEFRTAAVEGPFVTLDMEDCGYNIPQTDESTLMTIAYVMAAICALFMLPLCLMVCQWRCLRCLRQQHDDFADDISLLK

On to `CC(=O)N[C@@H](Cc1ccccc1)[C@H](O)CN[C@H]1CC2(CCC2)Oc2ccc(N3CCOC[C@@H]3C)cc21` [Example 139], for which the IC50 (at BACE; in assay [1] (setting [2])) was not above 5 µM in each case. Consider `COCC(=O)N[C@@H](Cc1cccc(Cl)c1)[C@H](O)CN[C@H]1CC(C)(C)Oc2ccc(Br)cc21` [Example 180], for which the IC50 against BACE was not above 5 µM. As for `CC(=O)N[C@@H](Cc1cccc(Cl)c1)[C@H](O)CN[C@H]1CC(C)(C)Oc2ccc(Br)cc21` [Example 182], the IC50 against BACE is not above 5 µM. Still for that read-out and setting: the value for `CC(=O)N[C@@H](Cc1ccccc1)[C@H](O)CN[C@H]1CC2(CCC2)Oc2ccc(N3CCCC3)cc21` [Example 264] was not above 5 µM. In the case of `CC(=O)N[C@@H](Cc1ccccc1)[C@H](O)CN[C@H]1CC2(CCC2)Oc2ccc(N3C[C@@H]4C[C@H]3CO4)cc21` [Example 388], the IC50 (against BACE; in assay [1] (setting [2])) was not above 5 µM each time. For `CC(=O)N[C@@H](Cc1ccccc1)[C@H](O)CN[C@H]1CC2(CCC2)Oc2ncc(CC(F)(F)F)cc21` [Example 512, N-((1S,2R)-2-hydroxy-1-(phenylmethyl)-3-(((4′S)-6′-(2,2,2-trifluoroethyl)-3′,4′-dihydrospiro[cyclobutane-1,2′-pyrano[2,3-b]pyridin]-4′-yl)amino)propyl)acetamide], the IC50 (against BACE; in assay [1] (setting [2])) was not above 5 µM in each case. For the compound `CC(=O)N[C@@H](Cc1cccc(F)c1)[C@H](O)CN[C@H]1CC2(CCC2)Oc2c1cc(CC(C)(C)C)nc2OC(C)C` [Example 610, N-((1S,2R)-3-(((4′S)-6′-(2,2-dimethylpropyl)-8′-((1-methylethyl)oxy)-3′,4′-dihydrospiro[cyclobutane-1,2′-pyrano[2,3-c]pyridin]-4′-yl)amino)-1-((3-fluorophenyl)methyl)-2-hydroxypropyl)acetamide], the IC50 on BACE is not above 5 µM; in assay [1] (cell based assay data of Table 4, unit inferred, read-out: Cell Assay) it was 0.0172 µM. Take `C=CC[C@H](NC(C)=O)[C@H](O)CN[C@H]1CC2(CCC2)Oc2ncc(CC(C)(C)C)cc21` [Example 736, N-((1S)-1-((1R)-2-(((4′S)-6′-(2,2-dimethylpropyl)-3′,4′-dihydrospiro[cyclobutane-1,2′-pyrano[2,3-b]pyridin]-4′-yl)amino)-1-hydroxyethyl)-3-buten-1-yl)acetamide]: the IC50 at BACE was not above 5 µM; in assay [1] (cell based assay data, Table 4, unit inferred, read-out: Cell Assay), 0.034 µM.

(Values after US7973047B2, “Beta-Secretase modulators and methods of use” (Amgen Inc., priority 2010, dated 2011).)
